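Method: 48-hour compound exposure of cells in 96-well plates, five concentrations, linear interpolation of endpoints. GI50 = concentration required for 50% inhibition of growth. TGI is the concentration that stops growth completely.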
Experiments:
Assay in all cases: inhibition of tumour cell growth, NCI panel, 48 h
CAKI-1 renal = system: CAKI-1 renal
COLO 205 colon = system: COLO 205 colon
HCT-116 colon = system: HCT-116 colon
HOP-62 NSCLC = system: HOP-62 NSCLC
IGROV1 ovarian = system: IGROV1 ovarian
MCF7 breast = system: MCF7 breast
NCI-H522 lung = system: NCI-H522 lung
PC-3 prostate = system: PC-3 prostate
UACC-257 melanoma = system: UACC-257 melanoma
A498 renal = system: A498 renal

Row | SMILES | TGI (CAKI-1 renal) | TGI (COLO 205 colon) | TGI (HCT-116 colon) | TGI (HOP-62 NSCLC) | TGI (IGROV1 ovarian) | TGI (MCF7 breast) | TGI (NCI-H522 lung) | TGI (PC-3 prostate) | TGI (UACC-257 melanoma) | GI50 (CAKI-1 renal) | GI50 (COLO 205 colon) | GI50 (HCT-116 colon) | GI50 (HOP-62 NSCLC) | GI50 (IGROV1 ovarian) | GI50 (PC-3 prostate) | GI50 (UACC-257 melanoma) | TGI (A498 renal) | GI50 (MCF7 breast) | GI50 (NCI-H522 lung) | GI50 (A498 renal)
1 | O=C1NC(=O)C(CC2CCCCCCCCCCC2=O)C(=O)N1 (centres undefined) | > 100 µM | > 100 µM | > 100 µM | > 100 µM | > 100 µM | > 100 µM | > 100 µM | > 100 µM | > 100 µM | – | – | – | – | – | – | – | – | – | – | –
2 | CC(=O)C(=CN1CCN(C(=O)c2ccco2)C1=S)C(C)=O | 19.1 µM | 54.9 µM | 13.7 µM | 41.7 µM | 17.3 µM | – | – | 46.6 µM | 12.1 µM | 5.19 µM | 23.4 µM | 4.05 µM | 22 µM | 3.64 µM | 4.83 µM | 2.51 µM | – | – | – | –
3 | C/C(CC(=O)NCCc1ccccc1)=N\NC(=O)C[n+]1ccccc1 | – | > 100 µM | > 100 µM | > 100 µM | > 100 µM | – | > 100 µM | – | > 100 µM | – | – | – | – | – | – | – | > 100 µM | – | – | –
4 | COc1ccc(C(=O)COc2ccc(/C=C3\COc4ccc(OC)cc4C3=O)cc2)cc1 | > 100 µM | > 100 µM | 31.1 µM | 47.7 µM | 54.7 µM | 18.6 µM | 74.5 µM | 47.1 µM | > 100 µM | 32.4 µM | 51.8 µM | 11.1 µM | 24.8 µM | 26 µM | 12.8 µM | 52.1 µM | – | 3.1 µM | 16.7 µM | –
5 | O=c1c2cc(Br)cc(Br)c2nc(CCCl)n1CCO | > 100 µM | > 100 µM | > 100 µM | > 100 µM | > 100 µM | – | > 100 µM | – | > 100 µM | – | – | – | – | – | – | – | > 100 µM | – | – | –
6 | C1C[OH+]CC[OH+]CC[OH+]CC[OH+]CC[OH+]1.[Cl-].[V] | > 100 µM | > 100 µM | > 100 µM | – | > 100 µM | – | > 100 µM | – | > 100 µM | 82.2 µM | > 100 µM | > 100 µM | – | 42.7 µM | – | 29.3 µM | > 100 µM | – | > 100 µM | > 100 µM
7 | CC(CO)(CO)NCCCCn1ccc2c1C(=O)c1c(c(O)c3ccccc3c1O)C2=O | 30.4 µM | 31.3 µM | 2.92 µM | 28.9 µM | – | 53.4 µM | – | 3.11 µM | – | 13.6 µM | 3.01 µM | 1.58 µM | 14 µM | – | 1.52 µM | – | 51 µM | 17.1 µM | – | 22.3 µM
8 | COc1ccc(OC)c2c(C(=O)O)c(Cc3ccccc3)ccc12 | > 100 µM | > 100 µM | > 100 µM | > 100 µM | > 100 µM | – | > 100 µM | – | > 100 µM | – | – | – | – | – | – | – | > 100 µM | – | – | –
9 | CCOc1cc(C(C)(C)C)ccc1C1=N[C@@](C)(c2ccc(Cl)cc2)[C@@](C)(c2ccc(Cl)cc2)N1C(=O)N1CCN(CCCS(C)(=O)=O)CC1 | 5.15 µM | 32.6 µM | – | 29.3 µM | 10.9 µM | 3.89 µM | 39.2 µM | – | 15.8 µM | 0.214 µM | 9.53 µM | – | 11.4 µM | 1.4 µM | – | 2.02 µM | 9.46 µM | 0.456 µM | 7.11 µM | 1.64 µM
10 | S=C1OC2CCCC[C@H]2O1 (some centres undefined) | > 100 µM | > 100 µM | > 100 µM | > 100 µM | > 100 µM | – | > 100 µM | – | > 100 µM | – | – | – | – | – | – | – | – | – | – | –
11 | O=C1CSC(/C(=N/Nc2ccccc2)c2nc3ccccc3[nH]2)=N1 | 56.1 µM | > 100 µM | > 100 µM | 67.3 µM | > 100 µM | – | > 100 µM | – | > 100 µM | – | – | – | – | – | – | – | > 100 µM | – | – | –
12 | c1ccc(C2Nc3ccccc3C3OCCCC23)cc1 (centres undefined) | 42.3 µM | > 100 µM | 87.3 µM | – | 70.2 µM | – | – | – | > 100 µM | – | – | – | – | – | – | – | 71.9 µM | – | – | –
13 | CSC(C1c2ccccc2N(c2ccc(C)cc2)c2[nH]c(=O)n(C)c(=O)c21)S(=O)(=O)c1ccc(C)cc1 (centres undefined) | > 100 µM | > 100 µM | > 100 µM | > 100 µM | > 100 µM | – | > 100 µM | – | > 100 µM | – | – | – | – | – | – | – | > 100 µM | – | – | –
14 | CCCCCCCCCCCC(=O)OCC1OC(OC)C(NC(=O)N(CCCl)N=O)C(O)C1O (centres undefined) | > 100 µM | 59 µM | 29.2 µM | 42.9 µM | > 100 µM | – | 24.7 µM | – | 27.5 µM | – | – | – | – | – | – | – | 35.7 µM | – | – | –
15 | COc1cc(NC(C)CCCN)c2nccc(C)c2c1 (centres undefined) | 56 µM | 28.4 µM | 29.3 µM | 34 µM | 44.6 µM | 33.2 µM | 33.3 µM | – | – | – | – | – | – | – | – | – | – | – | – | –
16 | CN(CCC#N)c1ccc(/C=C(\C#N)c2ccc(Br)cc2)cc1 | > 100 µM | – | – | – | > 100 µM | > 100 µM | – | > 100 µM | > 100 µM | > 100 µM | – | – | – | > 100 µM | > 100 µM | > 100 µM | > 100 µM | 4.05 µM | – | > 100 µM
17 | COc1ccc(/C=C/C(=O)C(CC2CCC2)C(=O)/C=C/c2ccc(OC)c(OC)c2)cc1OC | – | 5 µM | 2.42 µM | – | 5.27 µM | 40.5 µM | – | > 100 µM | 3.41 µM | – | 2.41 µM | 0.965 µM | – | 2 µM | 2.85 µM | 1.86 µM | 3.33 µM | 0.6 µM | – | 1.82 µM
18 | COc1cc(/C=C/c2ccc(OC)c(OC)c2)cc(OC)c1 | 94.1 µM | 39.7 µM | > 100 µM | > 100 µM | > 100 µM | > 100 µM | 66.4 µM | > 100 µM | > 100 µM | – | – | – | – | – | – | – | – | – | – | –
19 | COc1ccc2nc(NC(=O)C(=O)C(C#N)c3ccc([N+](=O)[O-])cc3)sc2c1 (centres undefined) | > 100 µM | > 100 µM | > 100 µM | > 100 µM | > 100 µM | – | > 100 µM | – | > 100 µM | – | – | – | – | – | – | – | – | – | – | –

Reference: PubChem BioAssay (NCI)
